System: MAGI-CCR5 cells, HIV-1 Ba-L, beta-gal luminescence, 48 h
Assay: inhibitors of R5 HIV-1 replication in MAGI cells – MAGI-CCR5 cells, HIV-1 Ba-L, 2% serum, set 4, dose response (AID 504553);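 active means compounds blocking at least half of HIV-1 reporter signal at some tested dose, so an IC50 within the tested range; inactive means the rest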

IC50, active:
Cc1c2c(=O)n(-c3nc4ccccc4s3)nc-2cc(O)n1CCc1cccs1 19 µM, COc1ccc(CCn2c(O)cc3nn(-c4nc5ccccc5s4)c(=O)c-3c2C)cc1 4.64 µM, Cc1c2c(=O)n(-c3nc4ccccc4s3)nc-2cc(O)n1Cc1cccnc1 6.07 µM, Cc1c2c(=O)n(-c3nc4ccccc4s3)nc-2cc(O)n1Cc1ccncc1 9.51 µM, Cc1c2c(=O)n(-c3nc4ccccc4s3)nc-2cc(O)n1C1CC1 6.99 µM, Cc1c2c(=O)n(-c3nc4ccccc4s3)nc-2cc(O)n1CCc1ccc(O)cc1 23 µM, Cc1c2c(=O)n(-c3nc4ccccc4s3)nc-2cc(O)n1Cc1cccs1 7.43 µM, Cc1c2c(=O)n(-c3nc4ccccc4s3)nc-2cc(O)n1Cc1ccccc1Cl 3.39 µM, Cc1c2c(=O)n(-c3nc4ccccc4s3)nc-2cc(O)n1Cc1ccccc1 9.28 µM, COc1ccc(Cn2c(O)cc3nn(-c4nc5ccccc5s4)c(=O)c-3c2C)cc1 29.2 µM, Cc1c2c(=O)n(-c3nc4ccccc4s3)nc-2cc(O)n1CCC(C)C 9.35 µM, Cc1c2c(=O)n(-c3nc4ccccc4s3)nc-2cc(O)n1Cc1ccc(F)cc1 3.53 µM, COc1ccccc1Cn1c(O)cc2nn(-c3nc4ccccc4s3)c(=O)c-2c1C 19.6 µM
